Data from patent US9326513B2, “Fungicidal compositions” (Syngenta Participations AG, priority 2011, dated 2016).

Tests used:
Format in all cases: in vivo
Conditions in all cases: foliar, compared to untreated control leaf disks, read-out: disease control
[1] = test system: Puccinia recondita f. sp. tritici; experiment: Puccinia recondita f. sp. tritici / wheat / leaf disc preventative (brown rust)
Description: Puccinia recondita f. sp. tritici/Wheat/Leaf Disc Preventative (Brown Rust) Wheat leaf segments cv. Kanzler were placed on agar in multiwell plates (24-well format) and sprayed with the formulated test compound diluted in water. The leaf disks were inoculated with a spore suspension of the fungus 1 day after application.

[2] = test system: Puccinia recondita f. sp. tritici; experiment: Puccinia recondita f. sp. tritici / wheat / leaf disc curative (brown rust)
Procedure: Puccinia recondita f. sp. tritici/Wheat/Leaf Disc Curative (Brown Rust) Wheat leaf segments cv. Kanzler are placed on agar in multiwell plates (24-well format). The leaf segments are inoculated with a spore suspension of the fungus. Plates were stored in darkness at 19° C. and 75% rh. The formulated test compound diluted in water was applied 1 day after inoculation.

[3] = test system: Blumeria graminis f. sp. tritici (Erysiphe graminis f. sp. tritici); experiment: Blumeria graminis f. sp. tritici / wheat / leaf disc preventative (powdery mildew on wheat)
Procedure: Blumeria graminis f. sp. tritici (Erysiphe graminis f. sp. tritici)/Wheat/Leaf Disc Preventative (Powdery Mildew on Wheat)
Wheat leaf segments cv. Kanzler were placed on agar in a multiwell plate (24-well format) and sprayed with the formulated test compound diluted in water. The leaf disks were inoculated by shaking powdery mildew infected plants above the test plates 1 day after application. The inoculated leaf disks were incubated at 20° C. and 60% rh under a light regime of 24 h darkness followed by 12 h light/12 h darkness in a climate chamber and the activity of a compound was assessed as percent disease control compared to untreated when an appropriate level of disease damage appears on untreated check leaf segments (6-8 days after application).
The following compounds gave at 200 ppm give at least 50% disease control in this test when compared to untreated control leaf disks under the same conditions, which show extensive disease development: […]

Measured: pest or weed control at 200 ppm

CCCOc1nc(C)c(/N=C/N(C)CC)cc1Br [Q.388]
≥ 50%: all assays above

Cc1nc(OCCCC(C)C)c(Br)cc1/N=C/N(C)C [Q.006]
≥ 50%: all assays above

CCN(C)/C=N/c1cc(Br)c(OC(C)c2cc(F)c(F)c(F)c2)nc1C (stereo not drawn) [Q.318]
≥ 50%: all assays above

CCN(C)/C=N/c1ccc(OC(C)c2cc(OC)cc(OC)c2)nc1C (stereo not drawn) [Q.373]
≥ 50%: all assays above

CCN(C)/C=N/c1cc(Br)c(OC2CCCCCC2)nc1C [Q.171]
≥ 50%: all assays above

CCN(C)/C=N/c1cc(Br)c(OCC[Si](C)(C)C)nc1C [Q.271]
≥ 50%: all assays above

CCN(C)/C=N/c1cc(Br)c(OC2CCCC(C)C2)nc1C (stereo not drawn) [Q.149]
≥ 50%: all assays above

CCN(C)/C=N/c1cc(Br)c(OC(C)c2ccccc2C#N)nc1C (stereo not drawn) [Q.305]
≥ 50%: all assays above

CCN(C)/C=N/c1ccc(O[C@H]2CC[C@@H](CC)CC2)nc1C [Q.381]
≥ 50%: all assays above

CCN(C)/C=N/c1cc(Br)c(OCc2cc(F)c(F)c(F)c2)nc1C [Q.317]
≥ 50%: all assays above

CCN(C)/C=N/c1cc(Br)c(OCc2ccccc2C)nc1C1CC1 [Q.401]
≥ 50%: all assays above

CCN(C)/C=N/c1cc(C)c(O[C@H]2CC[C@H](C(C)C)CC2)nc1C [Q.185]
≥ 50%: all assays above

CCN(C)/C=N/c1cc(Br)c(OCc2snc(-c3ccccc3)c2Cl)nc1C [Q.109]
≥ 50%: all assays above

C/C=C/CCCCOc1nc(C)c(/N=C/N(C)CC)cc1Br [Q.132]
≥ 50%: all assays above

CCN(C)/C=N/c1cc(-c2ccccc2)c(OC(C)c2cc(F)cc(F)c2)nc1C (stereo not drawn) [Q.263]
≥ 50%: all assays above

CCN(C)/C=N/c1cc(Br)c(OC2CCCCC2C)nc1C (stereo not drawn) [Q.084]
≥ 50%: all assays above

C=CCN1CCC(Oc2nc(C)c(/N=C/N(C)CC)cc2Br)CC1 [Q.165]
≥ 50%: all assays above

CCCc1ccccc1COc1nc(C)c(/N=C/N(C)CC)cc1Br [Q.345]
≥ 50%: all assays above

CCN(C)/C=N/c1cc(Br)c(OCC2CC=CC2)nc1C [Q.098]
≥ 50%: all assays above

CCN(C)/C=N/c1cc(Br)c(OCc2ccccc2C)nc1Br [Q.397]
≥ 50%: all assays above

CCN(C)/C=N/c1cc(Br)c(OCc2cc(-c3ccccc3)no2)nc1C [Q.073]
≥ 50%: all assays above

CCN(C)/C=N/c1cc(Br)c(OC2CCCc3ccc(Br)cc32)nc1C (stereo not drawn) [Q.126]
≥ 50%: all assays above

CCN(C)/C=N/c1cc(Br)c(OCc2ccccc2C(C)C)nc1C [Q.306]
≥ 50%: all assays above

CCN(C)/C=N/c1cc(Br)c(O[C@H]2CC[C@H](c3ccccc3)CC2)nc1C [Q.270]
≥ 50%: all assays above

CCN(C)/C=N/c1cc(Br)c(OC(C)c2ccc3c(c2)CCC3)nc1C (stereo not drawn) [Q.239]
≥ 50%: all assays above

C=CCC(CC=C)Oc1nc(C)c(/N=C/N(C)CC)cc1Br [Q.140]
≥ 50%: all assays above

CCN(C)/C=N/c1cc(Br)c(OCCCC(CCl)OC=O)nc1C (stereo not drawn) [Q.060]
≥ 50%: all assays above

CCN(C)/C=N/c1cc(Br)c(OC(C)c2ccc(C)cc2)nc1C (stereo not drawn) [Q.112]
≥ 50%: all assays above

CCN(C)/C=N/c1cc(Br)c(OCCCC2CC2)nc1C [Q.356]
≥ 50%: all assays above

C=Cc1ccccc1C(C)Oc1nc(C)c(/N=C/N(C)CC)cc1Br (stereo not drawn) [Q.276]
≥ 50%: all assays above

CCN(C)/C=N/c1cc(Br)c(OC(C)c2ccccc2C(F)F)nc1C (stereo not drawn) [Q.290]
≥ 50%: all assays above

C/C=C/c1cc(/N=C/N(C)CC)c(C)nc1OCc1ccccc1C [Q.385]
≥ 50%: all assays above

CCN(C)/C=N/c1cc(Br)c(OC2CCC(C(C)(C)C)CC2)nc1C (stereo not drawn) [Q.081]
≥ 50%: all assays above

CCN(C)/C=N/c1cc(Br)c(OCc2snc(C(C)C)c2C#N)nc1C [Q.156]
≥ 50%: all assays above

CCN(C)/C=N/c1cc(Br)c(O[C@@H]2C[C@@H]3ON=C(C)[C@@H]3C2)nc1C [Q.068]
≥ 50%: all assays above

CCCc1ccccc1C(C)Oc1nc(C)c(/N=C/N(C)CC)cc1Br (stereo not drawn) [Q.287]
≥ 50%: all assays above

CCN(C)/C=N/c1cc(Br)c(OCc2ccccc2-c2ccccc2)nc1C [Q.294]
≥ 50%: all assays above

CCOC(=O)COc1nc(C)c(/N=C/N(C)CC)cc1C [Q.065]
≥ 50%: all assays above

CC#Cc1cc(/N=C/N(C)CC)c(C)nc1OC(C)c1cc(F)cc(F)c1 (stereo not drawn) [Q.230]
≥ 50%: all assays above

CCN(C)/C=N/c1ccc(OCCc2ccccc2C)nc1C [Q.350]
≥ 50%: all assays above

CCCN/C=N/c1cc(Br)c(OCCCC(C)C)nc1C [Q.010]
≥ 50%: all assays above

CCN(C)/C=N/c1cc(Br)c(OCc2ccc3c(c2)CCCC3)nc1C [Q.319]
≥ 50%: all assays above

CCC(Oc1nc(C)c(/N=C/N(C)CC)cc1Br)c1cc(F)cc(F)c1 (stereo not drawn) [Q.327]
≥ 50%: all assays above

CCN(C)/C=N/c1cc(Br)c(OC(C)c2ccccc2Br)nc1C (stereo not drawn) [Q.303]
≥ 50%: all assays above

CCN(C)/C=N/c1cc(Br)c(OCC(C)F)nc1C (stereo not drawn) [Q.384]
≥ 50%: all assays above

CCN(C)/C=N/c1cc(Br)c(OCC2CC(C)=C(C)C2)nc1C [Q.134]
≥ 50%: all assays above

Cc1nc(OC2CCCCC2C)ccc1/N=C/N(C)C(C)C (stereo not drawn) [Q.342]
≥ 50%: all assays above

CCN(C)/C=N/c1ccc(OC(C)Cc2ccccc2)nc1C (stereo not drawn) [Q.368]
≥ 50%: all assays above

CCN(C)/C=N/c1cc(Br)c(OC2C=CCCC2)nc1C (stereo not drawn) [Q.172]
≥ 50%: all assays above

CCN(C)/C=N/c1ccc(OC(C)c2cc(F)cc(F)c2)nc1C (stereo not drawn) [Q.181]
≥ 50%: all assays above
